Laboratory results: EPA's ToxValDB 9.5
Converted amounts (≈) assume the structure as drawn. “And” between values parts separate entries of the source, which are not always exact repeats. Equal values may be shown once. Blank lines part the entries; values can stand above or below the compound they belong to.

Legend:
[1] = system: Pontoscolex corethrurus; details: acute; mortality
[2] = system: Oncorhynchus mykiss; details: acute; duration: 96 hours; mortality
[3] = system: Rattus norvegicus; details: for LD50: acute, mortality
[4] = system: Apis mellifera; details: acute; oral; unspecified; mortality
[5] = system: Mus musculus
[6] = system: Homo sapiens; details: clinical, oral; for NOAEL: M, clinical chemistry; for LEL: no effects
[7] = system: Gallus gallus
[8] = system: Sus scrofa; details: subchronic, oral, diet
[9] = system: Meleagris sp.; details: not reported
[10] = system: Canidae; details: chronic, clinical chemistry
[11] = system: Colinus virginianus; details: acute; oral; mortality
[12] = system: Daphnia magna; details: acute; mortality

Compound: O=C1CCSC1 [3(2H)-Thiophenone, dihydro-]
LC50 [1]: 305 mg/kg

Compound: CC(C)=CCC/C(C)=C/CO [(2E)-3,7-Dimethyl-2,6-octadien-1-ol]
LC50 [2]: 11.6 µg/mL (≈ 75.2 µM) | LD50 ([3]; oral): 3600 mg/kg-day

Compound: C[C@@H]1O[C@H](O[C@H]2[C@H](O[C@H]3[C@@H](OC[C@H]4O[C@@H](O[C@@H]([C@H](O)[C@@H](O)CO)[C@H](O)CO)[C@H](O)[C@@H](O)[C@@H]4O[C@@H]4O[C@H](CO[C@H]5OC[C@@H](O)[C@H](O)[C@H]5O)[C@@H](O)[C@H](O)[C@H]4O)OC[C@@H](O)[C@@H]3O)O[C@H](CO)[C@H](O)[C@@H]2O)[C@@H](O)[C@H](O)[C@@H]1O
LD50 ([3]; oral): > 5000 mg/kg-day | LD50 [4]: > 100 µg/piece

Compound: [Fe+2] [Fe +2 ion]
NOAEL ([5]; developmental, development): 380 mg/kg-day | NOAEL ([3]; developmental, development): 380 mg/kg-day

Compound: [Cu+2].[O-2] [Cupric oxide]
NOAEL ([6]; duration: 12 weeks): 10 mg/day

LEL ([7]; chronic, duration: 16 weeks, oral, diet, no effects): 390 mg/kg-day | LEL ([7]; short-term, duration: 21 days, oral, diet, M/F, food consumption): 600 mg/kg-day | LEL ([7]; short-term, duration: 21 days, oral, diet, clinical chemistry): 450 mg/kg-day and 300 mg/kg-day
Compound: [Cl-].[Cu+2].[Cu+2].[OH-].[OH-].[OH-] [Dicopper chloride trihydroxide]

LEL ([7]; subchronic, duration: 35 days, oral, diet, M/F, no effects): 0.07 mg/kg-day | LEL ([8]; duration: 42 days, Not specified, no effects): 0.5 mg/kg-day
Compound: C=C1CC[C@H](O)C/C1=C/C=C1\CCC[C@]2(C)[C@@H]([C@H](C)CCCC(C)(C)O)CC[C@@H]12 [Calcifediol]

Compound: CC(C)[C@H]1OC(=O)[C@H](Cc2ccccc2)N(C)C(=O)[C@@H](C(C)C)OC(=O)[C@H](Cc2ccccc2)N(C)C(=O)[C@@H](C(C)C)OC(=O)[C@H](Cc2ccccc2)N(C)C1=O [Beauvericin]
NOAEL ([7]; repeat dose other): 1.22 mg/kg-day and 0.536 mg/kg-day | NOAEL [9]: 136 µg/kg-day

Compound: CCCCCCC(C=O)=Cc1ccccc1 [2-(Phenylmethylene)octanal]
LC50 (acute, mortality): 0.2 µg/mL (≈ 0.925 µM) | NOAEL ([3]; chronic, duration: 14 weeks, oral, diet, M/F, organ weight): 30 mg/kg-day

Compound: O=C1OC2(c3ccccc31)c1cc(I)c([O-])c(I)c1Oc1c2cc(I)c([O-])c1I.[Na+].[Na+] [FD&C Red 3]
NOAEL ([6]; duration: 14 days, capsule): 1 mg/kg-day | NOAEL ([10]; duration: 2 years, oral, diet, M/F, Beagle): 10000 mg/kg-day | NOAEL ([3]; repeat dose other, oral, diet, other): 125 mg/kg-day

Compound: CC1=CC(=O)CC(C)(C)[C@@]1(O)/C=C/C(C)=C\C(=O)O [(+)-(S)-Abscisic acid]
LD50 ([3]; oral): > 5000 mg/kg-day | NOAEC ([3]; reproduction developmental, no effects): ≥ 1360 mg/kg-day | LD50 [11]: > 2250 mg/kg-day

Compound: OC[C@H]1O[C@@H]2O[C@H]3[C@H](O)[C@@H](O)[C@@H](O[C@H]4[C@H](O)[C@@H](O)[C@@H](O[C@H]5[C@H](O)[C@@H](O)[C@@H](O[C@H]6[C@H](O)[C@@H](O)[C@@H](O[C@H]7[C@H](O)[C@@H](O)[C@@H](O[C@H]8[C@H](O)[C@@H](O)[C@@H](O[C@H]1[C@H](O)[C@H]2O)O[C@@H]8CO)O[C@@H]7CO)O[C@@H]6CO)O[C@@H]5CO)O[C@@H]4CO)O[C@@H]3CO [beta-Cyclodextrin]
NOAEL ([10]; duration: 1 years, Dog Other): 466 mg/kg-day | NOAEL ([3]; chronic, duration: 6 months, oral, gavage, Long-Evans, body weight): 600 mg/kg-day | NOAEL ([3]; chronic, duration: 52 weeks, M/F, Sprague-Dawley, clinical chemistry): 654 mg/kg-day

Compound: CCC(C)c1nccnc1OC (stereo not given) [3-sec-Butyl-2-methoxypyrazine]
LC50 [1]: 235 mg/kg | LC50 [12]: 14 µg/mL (≈ 84.2 µM)

Compound: C=C(/C=C\C[C@@H](O)[C@@H](O)[C@H](O)C/C=C/C=C\[C@@H](O)C[C@@H]1O[C@H](C[C@@H](O)[C@H](O)C[C@H]2O[C@H]([C@H](O)[C@H](O)CC[C@H](O)/C=C/[C@H](C)[C@@H](O)C[C@]3(O)O[C@H](C[C@@H](O)CCCCCCC[C@@]45C[C@@H](C)C[C@@](C)(O4)[C@@H](C[C@@H](C)CCCCC[C@@H](O)[C@H](O)[C@H](O)[C@@H](O)[C@H](O)[C@H]4O[C@H](C[C@H](O)[C@H](O)/C(C)=C/[C@H](O)C[C@@H](C)[C@H](O)C(=O)N/C=C/C(=O)NCCCO)[C@H](O)[C@@H](O)[C@@H]4O)O5)[C@H](O)[C@@H](O)[C@H]3O)C[C@@H](O)[C@@H]2O)[C@@H](O)[C@H](O)[C@H]1O)CC[C@H](O)[C@@H](O)[C@H](O)[C@H](C)C[C@H]1O[C@H](/C=C\[C@@H](O)[C@H](O)C[C@@H]2C[C@@H]3C[C@H](O2)[C@@H](CC[C@H]2O[C@H](CN)C[C@H]2O)O3)[C@@H](O)[C@H](O)[C@H]1O [Palytoxin]
LOAEL ([5]; acute, oral, gavage, M, ICR, clinical signs): 0.2 mg/kg-day

LEL ([6]; duration: 3 months): 4000 mg/day | LEL ([6]; duration: 6 months): 4000 mg/day | LEL ([8]; duration: 6 weeks, M/F, Large White x Landrace, clinical chemistry): 10000 mg/kg-day
Compound: C[N+](C)(C)CC(=O)[O-] [Betaine]

Compound: CC(C)(C)c1cc(O)ccc1O [tert-Butylhydroquinone]
NOAEL ([10]; duration: 117 weeks, oral, diet, M/F, Beagle): 72 mg/kg-day

Compound: NC1=N[C@H](O)[C@H]2[C@H]3O[C@]4(O)O[C@@H]([C@@H](O)[C@@]2(N1)[C@@H]4O)[C@]3(O)CO [Tetrodotoxin]
LEL ([5]; acute, injection, intraperitoneal, no effects): 0.025 mg/kg-day | NOAEL ([5]; acute, oral, other): 0.075 mg/kg-day

LEL ([7]; subchronic, duration: 35 days, M, Chicken, no effects): 120 mg/kg-day
Compound: CSCCC(N)C(=O)[O-].O=S(=O)([O-])O.[Zn+2] (stereo not given)

Compound: CC(=O)OC(C)c1ccccc1 (racemic) [(+/-)-alpha-Methylbenzyl acetate]
LC50 [1]: 1480 mg/kg

Compound: CC(=O)CCc1ccc(O)cc1 [4-(4-Hydroxyphenyl)butan-2-one]
LC50 [1]: 248 mg/kg | LC50 [12]: 16.9 µg/mL (≈ 103 µM) | NOAEL (subchronic, duration: 13 weeks): 280 mg/kg-day
